The results in this text go back to patent publication US20250281498A1, “FUSED AMINO PYRIMIDINE COMPOUNDS FOR TREATMENT OF SYNUCLEINOPATHIES AND TDP-43 PROTEINOPATHIES” (Ovid Therapeutics Inc., priority 2024, published 2025).

Experiment [1] has as its system neuronal cell death in the hippocampus. In words: neuronal cell death in the hippocampus of mice treated with Compound A and diazepam. Format: in vivo. The note with it: Compound A and diazepam vs diazepam alone.
Experiment [2] concerns the target T1, KCC3 (Homo sapiens, UniProt Q9UHW9).
T1 construct: expressed in transfected cells; host or cells: HEK-293
T1 sequence (Q9UHW9 1-1150): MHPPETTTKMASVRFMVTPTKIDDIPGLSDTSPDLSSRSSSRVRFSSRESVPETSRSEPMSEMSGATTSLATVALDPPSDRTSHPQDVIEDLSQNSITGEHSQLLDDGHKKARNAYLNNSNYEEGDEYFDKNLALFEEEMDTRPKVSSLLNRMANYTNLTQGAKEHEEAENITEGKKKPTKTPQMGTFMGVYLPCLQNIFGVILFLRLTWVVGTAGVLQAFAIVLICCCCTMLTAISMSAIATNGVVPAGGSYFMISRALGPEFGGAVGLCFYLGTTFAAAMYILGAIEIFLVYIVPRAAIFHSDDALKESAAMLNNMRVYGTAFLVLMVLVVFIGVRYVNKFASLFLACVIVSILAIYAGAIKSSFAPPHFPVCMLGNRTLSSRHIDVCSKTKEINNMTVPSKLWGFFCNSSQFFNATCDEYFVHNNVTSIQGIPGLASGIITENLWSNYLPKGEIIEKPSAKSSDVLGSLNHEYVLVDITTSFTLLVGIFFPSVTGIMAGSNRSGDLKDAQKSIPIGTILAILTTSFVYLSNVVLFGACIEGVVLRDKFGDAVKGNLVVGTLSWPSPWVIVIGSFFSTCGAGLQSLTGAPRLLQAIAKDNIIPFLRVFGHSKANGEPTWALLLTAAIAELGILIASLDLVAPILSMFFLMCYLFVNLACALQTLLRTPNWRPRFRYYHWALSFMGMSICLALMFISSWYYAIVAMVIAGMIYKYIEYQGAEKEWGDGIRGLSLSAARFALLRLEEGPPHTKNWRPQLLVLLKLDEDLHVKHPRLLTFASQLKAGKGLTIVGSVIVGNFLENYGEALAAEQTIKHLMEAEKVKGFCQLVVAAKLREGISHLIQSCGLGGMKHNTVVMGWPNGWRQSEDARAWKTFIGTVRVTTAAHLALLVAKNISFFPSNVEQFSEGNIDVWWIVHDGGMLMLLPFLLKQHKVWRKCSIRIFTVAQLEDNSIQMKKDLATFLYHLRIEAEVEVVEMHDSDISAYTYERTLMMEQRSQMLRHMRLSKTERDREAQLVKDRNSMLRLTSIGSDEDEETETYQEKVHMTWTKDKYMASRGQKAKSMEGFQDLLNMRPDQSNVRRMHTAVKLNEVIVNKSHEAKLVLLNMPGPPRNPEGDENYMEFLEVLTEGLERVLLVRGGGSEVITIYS
Put plainly: TI+ flux assay, HEK-293 cells expressing KCC3. Format: cell-based. The following applies: read-out: concentration at which effects on KCC3 were seen (EC50 chart FIG. 1G). Here is the method:
FLIPR TI Flux assay. HEK-293 cells were washed with HBSS, and then incubated with loading buffer containing TI sensitive fluorescent dye (https://www.moleculardevices.com), 20 μM bumetanide 20 μM ouabain and 2.5 mM probenecid for 1 h at room temperature (RT) under control conditions or with drugs in the dark using a FlexStation 3 microplate reader (Molecular Devices) and imaged […] for 30 min. Stimulus buffer was added containing 5 mM K^+/0.5 mM Tl^+ and cells were imaged every 1.5 over a 190 second time course The initial rate Tl^+ uptake (Relative Fluorescence Units (RFU) per second) was determined following addition of the stimulus buffer as outlined previously (Conway et al., 2017, supra) (Lee et al., 2022, supra).
Several studies have shown that the activity and plasma membrane accumulation of KCC2 is potentiated via phosphorylation of S940, a process mediated by the activity of protein kinase C and protein phosphatase 1 (Lee et al., 2011, supra; Lee et al., J Biol Chem 282, 29777-29784 (2007); Moore et al., Proc. Natl. Acad. Sci. U.S.A. 115, 10166-10171 (2018); Moore et al., Trends Neurosci. 40, 555-571 (2017); Silayeva et al., Proc. Natl. Acad. Sci. U.S.A. 112, 3523-3528 (2015)). […] Compared to KCC2, effects on KCC3, KCC4, and NKCC1 were only seen at concentrations more than 35-fold that of KCC2 (>100 μM) (FIG. 1G).

As to `C[C@@H]1CN(c2nc3c(c(Nc4ccc(C5CCCCC5)cc4)n2)COC3)CCO1` [Compound A, (R)—N-(4-cyclohexylphenyl)-2-(2-methylmorpholino)-5,7-dihydrofuro[3,4-d]pyrimidin-4-amine], in experiment [1], the “neuronal cell death in the hippocampus” value is recorded as “significantly reduced”. Also, the EC50 in experiment [2] is above 100 µM.
